Experimental data: US11414379B2, “SPAK kinase inhibitors as neuroprotective agents” (United States Government as represented by the Department …, priority 2018, dated 2022)

Key:
Test in all cases: Kinase panel (Dundee profiling)
Type in all cases: biochemical
Conditions in all cases: read-out: % residual kinase activity
ASK1 = ASK1 (Homo sapiens, UniProt Q99683)
How it was run: (§1)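 Percent residual kinase activity versus DMSO control is reported, mean±SEM of three determinations. Compound was tested at 10 μM and at 1 μM in standard radioisotopic enzyme assays with recombinant kinases.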

Aurora B = Aurora B (Homo sapiens, UniProt Q96GD4)
Aurora B, sequence (Q96GD4 whole entry): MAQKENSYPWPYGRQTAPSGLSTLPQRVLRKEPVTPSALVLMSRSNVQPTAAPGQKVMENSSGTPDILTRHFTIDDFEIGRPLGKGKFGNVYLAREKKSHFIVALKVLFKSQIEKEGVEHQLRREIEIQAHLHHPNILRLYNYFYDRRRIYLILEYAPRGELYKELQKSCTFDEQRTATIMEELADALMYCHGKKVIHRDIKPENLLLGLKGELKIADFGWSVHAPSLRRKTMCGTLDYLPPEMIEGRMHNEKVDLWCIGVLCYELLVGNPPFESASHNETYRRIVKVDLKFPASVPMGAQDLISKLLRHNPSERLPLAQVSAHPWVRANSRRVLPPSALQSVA
How it was run: as §1

BTK = BTK (Homo sapiens, UniProt Q06187)
BTK, sequence (Q06187 whole entry, species assumed): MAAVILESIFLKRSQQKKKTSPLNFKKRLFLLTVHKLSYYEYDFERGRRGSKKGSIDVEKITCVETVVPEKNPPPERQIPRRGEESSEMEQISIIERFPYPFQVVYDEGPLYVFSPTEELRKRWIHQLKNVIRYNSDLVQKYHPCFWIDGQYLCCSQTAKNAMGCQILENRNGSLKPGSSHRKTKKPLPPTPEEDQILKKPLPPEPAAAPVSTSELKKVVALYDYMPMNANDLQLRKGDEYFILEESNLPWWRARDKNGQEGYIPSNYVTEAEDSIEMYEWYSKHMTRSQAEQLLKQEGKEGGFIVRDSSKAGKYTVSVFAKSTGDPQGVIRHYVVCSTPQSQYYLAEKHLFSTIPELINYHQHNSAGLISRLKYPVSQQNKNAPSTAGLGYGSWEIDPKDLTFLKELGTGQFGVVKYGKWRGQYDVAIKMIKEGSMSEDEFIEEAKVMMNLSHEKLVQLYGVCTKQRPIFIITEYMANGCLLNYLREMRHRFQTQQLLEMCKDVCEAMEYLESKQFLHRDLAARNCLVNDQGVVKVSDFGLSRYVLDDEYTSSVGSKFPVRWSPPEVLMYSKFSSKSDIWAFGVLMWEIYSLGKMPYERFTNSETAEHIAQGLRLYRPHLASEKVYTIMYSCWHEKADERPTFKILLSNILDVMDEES
How it was run: as §1

CAMK1 = CAMK1 (Homo sapiens, UniProt Q14012)
CAMK1, sequence (Q14012 whole entry, species assumed): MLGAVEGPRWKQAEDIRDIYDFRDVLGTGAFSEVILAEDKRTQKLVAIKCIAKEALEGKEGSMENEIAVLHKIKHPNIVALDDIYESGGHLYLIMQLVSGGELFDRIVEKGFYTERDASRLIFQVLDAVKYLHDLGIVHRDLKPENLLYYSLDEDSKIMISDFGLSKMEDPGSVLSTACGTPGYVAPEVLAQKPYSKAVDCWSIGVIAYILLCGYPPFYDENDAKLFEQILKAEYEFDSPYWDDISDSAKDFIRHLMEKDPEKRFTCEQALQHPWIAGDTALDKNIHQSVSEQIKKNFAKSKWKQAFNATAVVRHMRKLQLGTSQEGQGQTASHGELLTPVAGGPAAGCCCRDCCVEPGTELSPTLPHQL
How it was run: as §1

CAMKKb = CAMKKb (Homo sapiens, UniProt Q96RR4)
How it was run: as §1

CDK9-Cyclin T1 = CDK9-Cyclin T1 (Homo sapiens, UniProt P50750)
How it was run: as §1

CHK2 = CHK2 (Homo sapiens, UniProt O96017)
How it was run: as §1

CK1δ = CK1δ (Homo sapiens, UniProt P48730)
CK1δ, sequence (P48730 whole entry): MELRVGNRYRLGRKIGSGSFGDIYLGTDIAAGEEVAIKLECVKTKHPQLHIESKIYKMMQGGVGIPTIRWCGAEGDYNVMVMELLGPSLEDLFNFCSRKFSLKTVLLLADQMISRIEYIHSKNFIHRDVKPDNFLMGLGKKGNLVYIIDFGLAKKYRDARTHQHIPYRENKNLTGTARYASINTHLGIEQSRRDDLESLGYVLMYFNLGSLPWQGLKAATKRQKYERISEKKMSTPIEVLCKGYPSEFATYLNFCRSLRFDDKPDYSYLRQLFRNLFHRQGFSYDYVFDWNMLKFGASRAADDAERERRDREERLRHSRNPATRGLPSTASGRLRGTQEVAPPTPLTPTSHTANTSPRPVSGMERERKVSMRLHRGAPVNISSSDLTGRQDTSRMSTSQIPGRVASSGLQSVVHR
How it was run: as §1

CLK2 = CLK2 (Homo sapiens, UniProt P49760)
How it was run: as §1

DYRK3 = DYRK3 (Homo sapiens, UniProt O43781)
How it was run: as §1

EPH-B2 = EPH-B2 (Homo sapiens, UniProt P29323)
EPH-B2, sequence (P29323 19-1055, species assumed): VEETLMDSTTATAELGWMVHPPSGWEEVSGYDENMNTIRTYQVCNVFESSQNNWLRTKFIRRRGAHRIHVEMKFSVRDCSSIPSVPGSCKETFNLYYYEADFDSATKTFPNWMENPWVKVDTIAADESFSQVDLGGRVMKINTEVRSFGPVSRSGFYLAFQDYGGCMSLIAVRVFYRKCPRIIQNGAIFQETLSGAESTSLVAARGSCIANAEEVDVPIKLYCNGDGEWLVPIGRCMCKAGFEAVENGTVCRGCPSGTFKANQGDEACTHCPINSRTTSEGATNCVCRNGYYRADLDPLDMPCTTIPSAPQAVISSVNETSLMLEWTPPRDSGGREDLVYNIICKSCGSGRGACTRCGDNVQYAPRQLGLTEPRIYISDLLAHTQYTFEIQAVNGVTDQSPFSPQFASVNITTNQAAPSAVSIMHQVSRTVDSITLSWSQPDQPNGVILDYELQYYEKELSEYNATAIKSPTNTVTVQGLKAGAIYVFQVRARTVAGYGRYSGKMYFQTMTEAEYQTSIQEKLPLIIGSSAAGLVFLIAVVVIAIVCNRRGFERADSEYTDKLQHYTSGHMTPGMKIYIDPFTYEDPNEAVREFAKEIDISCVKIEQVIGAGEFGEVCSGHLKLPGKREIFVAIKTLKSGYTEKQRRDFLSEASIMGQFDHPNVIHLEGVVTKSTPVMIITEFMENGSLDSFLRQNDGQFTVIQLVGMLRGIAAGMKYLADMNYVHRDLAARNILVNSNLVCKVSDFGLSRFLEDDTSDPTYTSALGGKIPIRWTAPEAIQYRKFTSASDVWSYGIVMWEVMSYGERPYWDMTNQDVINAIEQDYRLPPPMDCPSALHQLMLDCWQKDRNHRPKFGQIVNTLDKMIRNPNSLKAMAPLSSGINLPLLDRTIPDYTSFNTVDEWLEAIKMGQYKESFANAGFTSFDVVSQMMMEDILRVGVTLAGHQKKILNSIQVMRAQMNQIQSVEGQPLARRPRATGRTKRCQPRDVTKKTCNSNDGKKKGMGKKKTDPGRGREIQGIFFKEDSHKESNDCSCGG
How it was run: as §1

HIPK2 = HIPK2 (Homo sapiens, UniProt Q9H2X6)
HIPK2, sequence (Q9H2X6 whole entry, species assumed): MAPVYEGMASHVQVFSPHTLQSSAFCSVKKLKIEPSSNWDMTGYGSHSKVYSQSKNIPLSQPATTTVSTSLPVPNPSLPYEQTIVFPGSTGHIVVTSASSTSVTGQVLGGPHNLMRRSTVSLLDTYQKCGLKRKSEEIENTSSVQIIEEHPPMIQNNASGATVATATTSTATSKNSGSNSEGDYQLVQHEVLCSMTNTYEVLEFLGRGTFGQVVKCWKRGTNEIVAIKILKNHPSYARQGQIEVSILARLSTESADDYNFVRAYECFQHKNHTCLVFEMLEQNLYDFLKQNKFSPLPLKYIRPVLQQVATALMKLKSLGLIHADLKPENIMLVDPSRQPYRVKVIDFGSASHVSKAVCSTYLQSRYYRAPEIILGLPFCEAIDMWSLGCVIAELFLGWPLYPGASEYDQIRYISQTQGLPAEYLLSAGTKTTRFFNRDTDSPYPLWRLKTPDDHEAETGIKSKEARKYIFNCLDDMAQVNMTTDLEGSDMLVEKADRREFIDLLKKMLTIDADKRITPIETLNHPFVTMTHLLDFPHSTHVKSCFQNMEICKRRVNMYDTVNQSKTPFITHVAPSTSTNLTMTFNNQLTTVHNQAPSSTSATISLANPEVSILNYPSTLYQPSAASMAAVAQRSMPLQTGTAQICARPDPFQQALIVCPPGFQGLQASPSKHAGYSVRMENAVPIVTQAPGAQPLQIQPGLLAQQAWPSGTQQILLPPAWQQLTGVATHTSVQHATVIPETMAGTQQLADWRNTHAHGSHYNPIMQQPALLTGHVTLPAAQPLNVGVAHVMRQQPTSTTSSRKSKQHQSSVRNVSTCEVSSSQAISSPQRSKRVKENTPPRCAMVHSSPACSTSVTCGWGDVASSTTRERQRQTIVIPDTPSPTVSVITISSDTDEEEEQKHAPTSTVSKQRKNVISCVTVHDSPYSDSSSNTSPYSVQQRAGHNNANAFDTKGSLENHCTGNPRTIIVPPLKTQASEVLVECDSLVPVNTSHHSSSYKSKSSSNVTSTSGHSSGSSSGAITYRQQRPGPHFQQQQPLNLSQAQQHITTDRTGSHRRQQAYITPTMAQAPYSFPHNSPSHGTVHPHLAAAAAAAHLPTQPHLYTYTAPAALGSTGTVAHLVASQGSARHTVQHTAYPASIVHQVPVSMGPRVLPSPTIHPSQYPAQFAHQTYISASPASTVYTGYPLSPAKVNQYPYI
How it was run: as §1

JAK2 = JAK2 (Homo sapiens, UniProt O60674)
How it was run: as §1

JNK1 = JNK1 (Homo sapiens, UniProt P45983)
How it was run: as §1

Lck = Lck (Homo sapiens, UniProt P06239)
How it was run: as §1

MAP4K5 = MAP4K5 (Homo sapiens, UniProt Q9Y4K4)
How it was run: as §1

MEKK1 = MEKK1 (Homo sapiens, UniProt Q13233)
How it was run: as §1

MLK1 = MLK1 (Homo sapiens, UniProt P80192)
How it was run: as §1

MST3 = MST3 (Homo sapiens, UniProt Q9Y6E0)
How it was run: as §1

PAK4 = PAK4 (Homo sapiens, UniProt O96013)
How it was run: as §1

PINK = PINK (Tribolium castaneum, UniProt D6WMX4)
How it was run: as §1

PKBa = PKBa (Homo sapiens, UniProt P31749, S473D)
How it was run: as §1

PKD1 = PKD1 (Homo sapiens, UniProt Q15139)
How it was run: as §1

PRK2 = PRK2 (Homo sapiens, UniProt Q16513)
PRK2, sequence (Q16513 whole entry, species assumed): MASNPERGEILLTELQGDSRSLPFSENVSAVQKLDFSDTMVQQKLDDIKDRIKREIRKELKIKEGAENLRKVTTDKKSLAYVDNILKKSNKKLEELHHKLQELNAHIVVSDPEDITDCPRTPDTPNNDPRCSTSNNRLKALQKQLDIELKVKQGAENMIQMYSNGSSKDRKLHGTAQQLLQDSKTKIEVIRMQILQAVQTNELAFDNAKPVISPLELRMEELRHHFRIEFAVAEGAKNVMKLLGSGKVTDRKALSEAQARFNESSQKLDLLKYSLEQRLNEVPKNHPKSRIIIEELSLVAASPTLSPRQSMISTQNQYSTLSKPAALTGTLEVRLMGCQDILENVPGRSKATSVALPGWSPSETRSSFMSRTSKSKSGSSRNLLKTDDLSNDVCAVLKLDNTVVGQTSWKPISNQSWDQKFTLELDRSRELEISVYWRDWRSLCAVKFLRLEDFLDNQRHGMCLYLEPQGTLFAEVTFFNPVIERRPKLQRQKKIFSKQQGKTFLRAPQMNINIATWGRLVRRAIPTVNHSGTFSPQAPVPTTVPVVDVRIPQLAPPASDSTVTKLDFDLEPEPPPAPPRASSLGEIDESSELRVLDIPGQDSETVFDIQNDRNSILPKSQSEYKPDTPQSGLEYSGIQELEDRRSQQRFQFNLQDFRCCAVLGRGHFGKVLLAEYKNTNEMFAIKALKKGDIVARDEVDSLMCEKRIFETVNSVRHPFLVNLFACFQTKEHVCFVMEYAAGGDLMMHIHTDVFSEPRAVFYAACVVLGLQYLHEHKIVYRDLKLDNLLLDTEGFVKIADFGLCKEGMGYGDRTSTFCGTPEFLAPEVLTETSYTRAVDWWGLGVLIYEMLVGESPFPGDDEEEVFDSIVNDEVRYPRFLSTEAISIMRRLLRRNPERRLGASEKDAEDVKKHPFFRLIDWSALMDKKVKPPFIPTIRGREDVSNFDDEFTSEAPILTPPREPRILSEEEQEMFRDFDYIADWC
How it was run: as §1

RIPK2 = RIPK2 (Homo sapiens, UniProt O43353)
How it was run: as §1

SRPK1 = SRPK1 (Homo sapiens, UniProt Q96SB4)
How it was run: as §1

Src = Src (Homo sapiens, UniProt P12931)
How it was run: as §1

TAK1 = TAK1 (Homo sapiens, UniProt O43318)
How it was run: as §1

TESK1 = TESK1 (Homo sapiens, UniProt Q15569)
How it was run: as §1

TGFBR1 = TGFBR1 (Homo sapiens, UniProt P36897)
How it was run: as §1

TLK1 = TLK1 (Homo sapiens, UniProt Q9UKI8)
How it was run: as §1

ULK1 = ULK1 (Homo sapiens, UniProt O75385)
How it was run: as §1

SMILES: Cc1cc(C(C#N)c2ccc(Cl)cc2)c(Cl)cc1NC(=O)c1cc(Cl)ccc1O (stereo not shown) [ZT-1a, 5-chloro-N-(5-chloro-4-((4-chlorophenyl)(cyano)methyl)-2-methylphenyl)-2-hydroxy-benzamide]
- remaining activity at 1 µM (ASK1; 1 μM): 101 ± 3%
- remaining activity at 10 µM (ASK1; 10 μM): 100 ± 11%
- remaining activity at 1 µM (Aurora B; 1 μM): 119 ± 6%
- remaining activity at 10 µM (Aurora B; 10 μM): 92 ± 15%
- remaining activity at 1 µM (BTK; 1 μM): 113 ± 1%
- remaining activity at 10 µM (BTK; 10 μM): 73 ± 2%
- remaining activity at 1 µM (CAMK1; 1 μM): 60 ± 5%
- remaining activity at 10 µM (CAMK1; 10 μM): 71 ± 31%
- remaining activity at 1 µM (CAMKKb; 1 μM): 115 ± 10%
- remaining activity at 10 µM (CAMKKb; 10 μM): 102 ± 9%
- remaining activity at 1 µM (CDK9-Cyclin T1; 1 μM): 104%
- remaining activity at 10 µM (CDK9-Cyclin T1; 10 μM): 108 ± 1%
- remaining activity at 1 µM (CHK2; 1 μM): 106 ± 1%
- remaining activity at 10 µM (CHK2; 10 μM): 68 ± 6%
- remaining activity at 1 µM (CK1δ; 1 μM): 116 ± 5%
- remaining activity at 10 µM (CK1δ; 10 μM): 114 ± 9%
- remaining activity at 1 µM (CLK2; 1 μM): 68 ± 12%
- remaining activity at 10 µM (CLK2; 10 μM): 33 ± 45%
- remaining activity at 1 µM (DYRK3; 1 μM): 113 ± 6%
- remaining activity at 10 µM (DYRK3; 10 μM): 56 ± 15%
- remaining activity at 1 µM (EPH-B2; 1 μM): 77 ± 2%
- remaining activity at 10 µM (EPH-B2; 10 μM): 81 ± 8%
- remaining activity at 1 µM (HIPK2; 1 μM): 90 ± 14%
- remaining activity at 10 µM (HIPK2; 10 μM): 91 ± 4%
- remaining activity at 1 µM (JAK2; 1 μM): 125 ± 6%
- remaining activity at 10 µM (JAK2; 10 μM): 123 ± 8%
- remaining activity at 1 µM (JNK1; 1 μM): 106 ± 4%
- remaining activity at 10 µM (JNK1; 10 μM): 110 ± 5%
- remaining activity at 1 µM (Lck; 1 μM): 112 ± 13%
- remaining activity at 10 µM (Lck; 10 μM): 127 ± 14%
- remaining activity at 1 µM (MAP4K5; 1 μM): 95 ± 28%
- remaining activity at 10 µM (MAP4K5; 10 μM): 76 ± 9%
- remaining activity at 1 µM (MEKK1; 1 μM): 109 ± 1%
- remaining activity at 10 µM (MEKK1; 10 μM): 93 ± 16%
- remaining activity at 1 µM (MLK1; 1 μM): 94 ± 4%
- remaining activity at 10 µM (MLK1; 10 μM): 81 ± 21%
- remaining activity at 1 µM (MST3; 1 μM): 109 ± 8%
- remaining activity at 10 µM (MST3; 10 μM): 113 ± 15%
- remaining activity at 1 µM (PAK4; 1 μM): 81 ± 16%
- remaining activity at 10 µM (PAK4; 10 μM): 51 ± 3%
- remaining activity at 1 µM (PINK; 1 μM): 101 ± 13%
- remaining activity at 10 µM (PINK; 10 μM): 59 ± 4%
- remaining activity at 1 µM (PKBa; 1 μM): 104 ± 1%
- remaining activity at 10 µM (PKBa; 10 μM): 91 ± 4%
- remaining activity at 1 µM (PKD1; 1 μM): 89%
- remaining activity at 10 µM (PKD1; 10 μM): 79 ± 10%
- remaining activity at 1 µM (PRK2; 1 μM): 118 ± 4%
- remaining activity at 10 µM (PRK2; 10 μM): 120 ± 7%
- remaining activity at 1 µM (RIPK2; 1 μM): 128 ± 5%
- remaining activity at 10 µM (RIPK2; 10 μM): 120 ± 3%
- remaining activity at 1 µM (SRPK1; 1 μM): 104 ± 5%
- remaining activity at 10 µM (SRPK1; 10 μM): 73 ± 20%
- remaining activity at 1 µM (Src; 1 μM): 107 ± 4%
- remaining activity at 10 µM (Src; 10 μM): 84 ± 13%
- remaining activity at 1 µM (TAK1; 1 μM): 117 ± 22%
- remaining activity at 10 µM (TAK1; 10 μM): 103 ± 5%
- remaining activity at 1 µM (TESK1; 1 μM): 109 ± 3%
- remaining activity at 10 µM (TESK1; 10 μM): 77 ± 10%
- remaining activity at 1 µM (TGFBR1; 1 μM): 63 ± 9%
- remaining activity at 10 µM (TGFBR1; 10 μM): 77 ± 5%
- remaining activity at 1 µM (TLK1; 1 μM): 130 ± 13%
- remaining activity at 10 µM (TLK1; 10 μM): 124 ± 4%
- remaining activity at 1 µM (ULK1; 1 μM): 87 ± 10%
- remaining activity at 10 µM (ULK1; 10 μM): 89 ± 13%
